Source: patent US10959970B2, “Methods of treating hair related conditions” (Nogra Pharma Limited, priority 2009, dated 2021)

Tests used:
[1] = test system: human primary keratinocytes; test: MTT test on human primary keratinocytes; assay type: cell-based; details: 0.1-1-2 mM, 24 and 48 h, FIG. 7
Description: To assess the possible toxic or cytostatic effect of the substances under study, a spectrophotometric test (MTT) was carried out. The human primary keratinocytes, isolated from skin biopsies, were plated in wells of a 24-well plate in suitable medium with addition of antibiotics, calcium, and specific growth factors. At around 70% confluence, the cells were exposed to the presence of Compound A, at various concentrations (0.1-1-2 mM), for 24 and 48 h in suitable medium with addition of antibiotics, calcium, but no growth factors. This culture condition was done for all the subsequent experiments. At the end of the treatment, the MTT test was done.

K15 = K15 expression in treated hair follicles and skin; assay type: cell-based, human; details: FIG. 5
Description: (§1) A Philpott model test system of microdissected organ-cultured hair follicles is used. Hair follicles and skin punches were divided into 4 groups (3 HFs/well) incubated with the test substance Compound ‘A in different concentrations for 6 days. On day 0, microdissection measurements of hair length are conducted. On day 1, the medium is changed and addition of compound A (with measurement of hair length). On day 3, the medium is changed and compound a is added (with measurement of hair length). On day 6, hair length is measured and embedding occurs.

K19 = K19 cells in treated hair follicles and skin; assay type: cell-based, human; details: for K19 cells: lower hair follicle, FIG. 6
Description: as §1

[2] = test system: human hair follicle pigmentation; test: Fontana-Masson histomorphometry/melanin staining on hair follicle cryosections; assay type: cell-based; details: FIG. 2
Description: as §1

sebocytes [3] = test: GC-MS assay of fatty acids and squalene in lipid extract of sebocytes stimulated with LA and TST; assay type: cell-based, human; details: sebocyte lipid extract, A 1 mM
Description: In order to evaluate in greater detail the inhibition by Compound A of sebogenesis induced by LA and TST, assays were performed on the lipid extract of the sebocytes using gas chromatography coupled with mass spectrometry (GC-MS). The sebocytes were treated by the scheme described for the Nile Red assay. At the end of the treatment, the cells were removed and then the lipid extraction was done by using organic solvents. One part of the extract was used to analyze the fatty acid composition, while the other part was used for the determination of the quantity of squalene, a lipid characteristic of sebum. […] (FIG. 14B)

TNF-alpha mRNA = test: Inhibition of TNF-alpha mRNA induction by H2O2 in keratinocytes (Real time RT-PCR); assay type: cell-based, human; details: H2O2 300 μM, 6 h, FIG. 8
Description: Analysis of the inhibition of compound A of the mRNA induction of the proinflammatory cytokine TNF-alpha by H2O2 was carried out by Real time RT-PCR. The keratinocytes were plated in dishes of 6 cm/Ø. At 80% confluence, the cells were treated with H2O2 (300 μM) in presence of Compound A at the three concentrations (0.01-0.1-0.5 mM) for 6 h. At the end of the treatment, the cells were lysed in a lysis buffer and subjected to isolation and subsequent retrotranscription of the RNA. […] (FIG. 8)

IL-6 = test: Inhibition of IL-6 protein induction by LPS in keratinocytes (ELISA); assay type: cell-based, human; details: LPS 10 μg/ml, 0.01-0.1-0.5 mM, 24 h, supernatant ELISA, FIG. 11
Description: Analysis of the inhibition by Compound A of the protein induction of IL-6 by LPS (lipopolysaccharide) was done with the ELISA kit. The keratinocytes were plated in wells of a 24-well plate. At 80% confluence, the cells were treated with LPS (10 μg/ml) in presence of compound A at the three concentrations (0.01-0.1-0.5 mM) for 24 h. At the end of the treatment, the supernatant was decanted, centrifuged so as to remove any cell detritus, and kept at −80° C. until the time of the analysis. The quantity of IL-6 present in the supernatant was normalized by the protein concentration of the sample itself.

[4] = test system: microdissected organ-cultured hair follicles; test: Hair shaft elongation in Philpott model of microdissected organ-cultured hair follicles; assay type: cell-based, human; details: 6 days, lower dose of compound A, FIG. 1
Description: as §1

IL-6 mRNA = test: Inhibition of IL-6 mRNA induction by IFN-γ in keratinocytes (Real time RT-PCR); assay type: cell-based, human; details: IFN-γ 30 ng/ml, 0.01-0.1-0.5 mM, 6 h, FIG. 9
Description: Analysis of the inhibition by compound A of the mRNA induction of the proinflammatory cytokine IL-6 by IFN-γ was done through Real time RT-PCR. The keratinocytes were plated in dishes of 6 cm/Ø.
At 80% confluence, the cells were treated with IFN-γ (30 ng/ml) in presence of compound A at the three concentrations (0.01-0.1-0.5 mM) for 6 h.

sebocytes [5] = test: MTT test on human sebocytes; assay type: cell-based; details: 0.1-0.5-1-2 mM, 24 and 48 h, FIG. 12
Description: To assess the possible toxic or cytostatic effect of the substances under study, a spectrophotometric test (MTT) was carried out. The sebocytes were plated in wells of a 24-well plate in suitable medium with addition of antibiotics, calcium and EGF. At roughly 70% confluence, the cells were exposed to the presence of compound A, in various concentrations (0.1-0.5-1-2 mM), for 24 and 48 h. At the end of the treatment, the MTT test was performed. […] (FIG. 12)

sebocytes [6] = test: Nile Red assay of sebogenesis induced by linoleic acid and testosterone in sebocytes; assay type: cell-based, human; details: for sebogenesis (intracellular lipids, Nile Red) induced by LA and LA+TST: TST (20 nM), 24 h
Description: Analysis of the inhibition by (compound A) of sebogenesis induced by treatment with linoleic acid (LA) and with testosterone (TST) was evaluated by spectrofluorimetry, using Nile Red as selective marker of intracellular lipids (Nile Red Assay). The sebocytes were plated in wells of a 24-well plate. Next day, they were deprived of serum (2%) and after 24 h they were stimulated, for another 24 h, with LA (10^-4M), TST (20 nM) in presence or in absence of A (1 mM). At the end of the treatment, the sebocytes were stained with Nile Red. The quantitative analysis was done by spectrofluorimetry, which made it possible to distinguish between neutral lipids and polar lipids based on the different wavelength of excitation and emission. […] (FIG. 13).
Analysis of the inhibition by compound A of sebogenesis induced by treatment with linoleic acid (LA) and with testosterone (TST) was evaluated by spectrofluorimetry, using Nile Red as selective marker of intracellular lipids (Nile Red Assay). The sebocytes were plated in wells of a 24-well plate. Next day, they were deprived of serum (2%) and after 24 h they were stimulated, for another 24 h, with LA (10^-4M), TST (20 nM) in presence or in absence of compound A (1 mM). At the end of the treatment, the sebocytes were stained with Nile Red. The quantitative analysis was done by spectrofluorimetry, which made it possible to distinguish between neutral lipids and polar lipids based on the different wavelength of excitation and emission.

[7] = test system: human hair matrix keratinocytes; test: Ki-67/Tunel fluorescent staining of hair follicles; assay type: cell-based; details: high doses of compound A; FIG. 4
Description: as §1
Ki-67/Tunel staining was also conduct on the hair follicles using fluorescent staining.

CO[C@H](Cc1ccc(NC(C)=O)cc1)C(=O)O [Compound A, N-acetyl-(R)-(−)-3-(4-aminophenyl)-2-methoxypropionic acid]
cellular vitality (MTT) [1]: did not show any effect on cellular vitality | K15 expression (K15; lower hair follicle, lower doses of compound A): significant upregulation | K15 expression (K15; treated skin): no measurable expression | K19 cells (K19; 10× higher concentration): down regulation | K19 cells (K19; lower concentration): significant upregulation | K19 expression (K19; skin): no measurable expression | human hair follicle pigmentation (melanin staining) [2]: stimulation of human hair follicle pigmentation | fatty acid assay of lipidogenic stimulus induced by LA and LA+TST (sebocytes [3]; FIG. 14A): reduced | squalene analysis of lipidogenic stimulus induced by LA and LA+TST (sebocytes [3]; FIG. 14B): confirmed | expression of the mRNA of TNF-α induced by H2O2 (TNF-alpha mRNA; higher dose (0.5 mM), effect similar to troglitazone (Tg)): complete inhibition | expression of the mRNA of TNF-α induced by H2O2 (TNF-alpha mRNA; two higher doses (0.1 mM; 0.5 mM)): able to inhibit | protein expression of IL-6 induced by LPS (IL-6): inhibit, in dose-dependent manner | hair shaft elongation [4]: stimulates hair shaft elongating | dose dependence of inhibition of IL-6 mRNA expression induced by IFN-γ (IL-6 mRNA): does not appear to be dose-dependent | mRNA expression of IL-6 induced by IFN-γ (IL-6 mRNA): inhibit the expression of the inflammatory cytokine | cell vitality (MTT) (sebocytes [5]): no effects on cell vitality | sebogenesis (intracellular lipids, Nile Red) induced by LA and LA+TST (sebocytes [6]; Example 9, LA (10^-4M), A 1 mM, FIG. 13): able to reduce the lipidogenic stimulus | sebogenesis (intracellular lipids, Nile Red) induced by LA and LA+TST (sebocytes [6]; Example 11, LA (10^-4M), compound A 1 mM, FIG. 15): able to reduce the lipidogenic stimulus | influence of the times of treatment on reduction of the lipidogenic stimulus (sebocytes [6]; Example 11, Nile Red assay, FIG. 15): No differences were observed | proliferation and apoptosis of hair matrix keratinocytes (Ki67/Tunel immunohistomorphometry) [7]: stimulates both proliferation and apoptosis
